Laboratory results: patent publication US12637413B2, “Fatty acid amide hydrolase (FAAH) cleavable prodrugs of thyromimetics and combination with peripherally restricted FAAH inhibitors” (Autobahn Therapeutics, Inc., priority 2021, dated 2026)

Target: T1, recombinant human FAAH (rhFAAH) (Homo sapiens, UniProt O00519)
T1 construct: purchased Cayman Chemical (Ann Arbor, MI, USA)
T1 sequence (O00519 1-579): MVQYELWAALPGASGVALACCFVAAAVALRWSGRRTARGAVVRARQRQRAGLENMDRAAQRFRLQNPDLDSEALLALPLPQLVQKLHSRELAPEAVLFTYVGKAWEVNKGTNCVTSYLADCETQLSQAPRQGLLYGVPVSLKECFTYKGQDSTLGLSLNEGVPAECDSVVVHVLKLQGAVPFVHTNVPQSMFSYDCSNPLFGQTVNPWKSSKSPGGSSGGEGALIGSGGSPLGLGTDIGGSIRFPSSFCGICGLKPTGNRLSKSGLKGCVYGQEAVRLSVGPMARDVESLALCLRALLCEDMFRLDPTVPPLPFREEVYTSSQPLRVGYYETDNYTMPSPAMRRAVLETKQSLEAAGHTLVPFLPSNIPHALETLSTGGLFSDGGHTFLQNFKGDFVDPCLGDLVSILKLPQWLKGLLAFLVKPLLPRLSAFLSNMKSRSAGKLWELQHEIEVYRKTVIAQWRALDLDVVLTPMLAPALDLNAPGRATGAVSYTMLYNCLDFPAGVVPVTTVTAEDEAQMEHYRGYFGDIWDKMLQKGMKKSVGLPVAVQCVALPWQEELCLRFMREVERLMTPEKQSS
Assay: FAAH substrate evaluation (acid metabolite formation)
Type: biochemical
Conditions: observed rate constant for acid metabolite formation; 0.5 ng/μL rhFAAH, 1 μM test compound, room temperature, 0-60 minutes
Description: Purified recombinant human FAAH (rhFAAH) was purchased from Cayman Chemical (Ann Arbor, MI, USA). The total volume for each incubation was 400 μL containing a final 0.5 ng/μL rhFAAH, 1 μM test compound, 1.25% ethanol or 1 μM PF-3845 (FAAH inhibitor), and 0.1% bovine serum albumin in Tris-EDTA buffer at pH 8.0). The positive control was LL-341001. The incubation was conducted at the room temperature. At 0, 5, 15, 30 and 60 minutes, an aliquot of 30 μL reaction mixtures was removed and mixed with 300 μL acetonitrile containing 5 ng/mL terfenadine and 10 ng/mL tolbutamide as internal standards to quench the reaction. The resulting mixture was centrifuged at 4000 rpm, 4° C. for 15 minutes, and 100 μL supernatant was ready for LC-MS/MS analysis to measure the formation of acid metabolite.
Acquity Ultra Performance LC system from Waters was used for sample analysis. The chromatography was performed on a reverse phase Kinetex 2.6 μm C18 column, 2.1×30 mm, 100 Å. The mobile phase A comprised of 0.1% formic acid in water and mobile phase B comprised of 0.1% formic acid in acetonitrile with a 2-min run time at the flow rate of 0.8 mL/min for the acid metabolite from positive control or a 1.5 min run time at the flow rate of 0.9 mL/min for the acid metabolite of test compounds. The mass spectrometer (API-5500 and API Q Trap 4000 Applied Biosystems/MDS SCIEX Instruments, Framingham, MA, USA) was operated under ESI positive or negative ion MRM mode.
The formation of acid metabolite was monitored and quantified using one calibration point of 1 μM. The observed rate constant (ke) for the acid metabolite formation was calculated by plotting the metabolite concentration versus time of incubation with the slope being ke and is shown in Table 1.

| Compound | ke |
| --- | --- |
| CNC(=O)COc1cc(Cl)c(Cc2ccc(O)c(C(C)C)c2)c(Cl)c1F [Compound 37] | B (ke is less than 0.1 and more than 0) |
| CC(C)c1cc(Cc2c(Cl)cc(OCC(=O)N(C)CCO)cc2Cl)ccc1O [Compound 123, 2-(3,5-dichloro-4-(4-hydroxy-3-isopropylbenzyl)phenoxy)-N-(2-hydroxyethyl)-N-methylacetamide] | B (ke is less than 0.1 and more than 0) |
| CC(C)c1cc(Cc2c(Cl)cc(OCC(=O)N(C)C(C)C)cc2Cl)ccc1O [Compound 122, 2-(3,5-dichloro-4-(4-hydroxy-3-isopropylbenzyl)phenoxy)-N-isopropyl-N-methylacetamide] | B (ke is less than 0.1 and more than 0) |
| COc1ccc(NC(=O)COc2cc(Cl)c(Cc3ccc(O)c(C(C)C)c3)c(Cl)c2)cn1 [Compound 101, 2-(3,5-dichloro-4-{[4-hydroxy-3-(propan-2-yl)phenyl]methyl}phenoxy)-N-(6-methoxypyridin-3-yl)acetamide] | A (ke is more than or equal to 0.1) |
| CC(C)c1cc(Cc2c(Cl)cc(OCC(=O)N[C@@H](C)CO)cc2Cl)ccc1O [Compound 10] | A (ke is more than or equal to 0.1) |
| CC(C)c1cc(Cc2c(Cl)cc(OCC(=O)NCCF)cc2Cl)ccc1O [Compound 14] | A (ke is more than or equal to 0.1) |
| CC(C)c1cc(Cc2c(Cl)cc(OCC(=O)NC(CO)CO)cc2Cl)ccc1O [Compound 11] | B (ke is less than 0.1 and more than 0) |
| CC(C)CNC(=O)COc1cc(Cl)c(Cc2ccc(O)c(C(C)C)c2)c(Cl)c1 [Compound 121, 2-(3,5-dichloro-4-(4-hydroxy-3-isopropylbenzyl)phenoxy)-N-isobutylacetamide] | C (ke is 0) |
| CC#CCNC(=O)COc1cc(Cl)c(Cc2ccc(O)c(C(C)C)c2)c(Cl)c1 [Compound 106, N-(but-2-yn-1-yl)-2-(3,5-dichloro-4-(4-hydroxy-3-isopropylbenzyl)phenoxy)acetamide] | B (ke is less than 0.1 and more than 0) |
| CC#CCN(C)C(=O)COc1cc(Cl)c(Cc2ccc(O)c(C(C)C)c2)c(Cl)c1 [Compound 107, N-(but-2-yn-1-yl)-2-(3,5-dichloro-4-(4-hydroxy-3-isopropylbenzyl)phenoxy)-N-methylacetamide] | B (ke is less than 0.1 and more than 0) |
| CC(C)c1c(O)ccc(Cc2c(Cl)cc(OCC(N)=O)cc2Cl)c1F [Compound 35] | A (ke is more than or equal to 0.1) |
| CC(C)c1cc(Cc2c(Cl)cc(OCC(=O)N(C)C)c(F)c2Cl)ccc1O [Compound 38] | B (ke is less than 0.1 and more than 0) |
| CC(C)c1cc(Cc2c(Cl)cc(OCC(=O)NC3COC3)cc2Cl)ccc1O [Compound 18] | A (ke is more than or equal to 0.1) |
| CCN(C)C(=O)COc1cc(Cl)c(Cc2ccc(O)c(C(C)C)c2)c(Cl)c1 [Compound 130, 2-(3,5-dichloro-4-(4-hydroxy-3-isopropylbenzyl)phenoxy)-N-ethyl-N-methylacetamide] | B (ke is less than 0.1 and more than 0) |
| CC(C)c1c(O)ccc(Cc2c(Cl)cc(OCC(=O)N(C)C)c(F)c2Cl)c1F [Compound 40] | B (ke is less than 0.1 and more than 0) |
| CCCN(C)C(=O)COc1cc(Cl)c(Cc2ccc(O)c(C(C)C)c2)c(Cl)c1 [Compound 129, 2-(3,5-dichloro-4-(4-hydroxy-3-isopropylbenzyl)phenoxy)-N-methyl-N-propylacetamide] | B (ke is less than 0.1 and more than 0) |
| CC(C)c1cc(Cc2c(Cl)cc(OCC(=O)Nc3ccncc3)cc2Cl)ccc1O [Compound 115, 2-(3,5-dichloro-4-(4-hydroxy-3-isopropylbenzyl)phenoxy)-N-(pyridin-4-yl)acetamide] | A (ke is more than or equal to 0.1) |
| CC(C)c1c(O)ccc(Cc2c(Cl)cc(OCC(=O)NN(C)C)cc2Cl)c1F [Compound 45] | A (ke is more than or equal to 0.1) |
| CC(C)c1cc(Cc2c(Cl)cc(OCC(=O)Nc3ccccc3O)cc2Cl)ccc1O [Compound 20] | A (ke is more than or equal to 0.1) |
| CC(C)c1cc(Cc2c(Cl)cc(OCC(=O)N(C)CCF)cc2Cl)ccc1O [Compound 125, 2-(3,5-dichloro-4-(4-hydroxy-3-isopropylbenzyl)phenoxy)-N-(2-fluoroethyl)-N-methylacetamide] | B (ke is less than 0.1 and more than 0) |

| Compound | ke |
| --- | --- |
| Cc1noc(NC(=O)COc2cc(Cl)c(Cc3ccc(O)c(C(C)C)c3)c(Cl)c2)c1C [Compound 103, 2-(3,5-dichloro-4-(4-hydroxy-3-isopropylbenzyl)phenoxy)-N-(3,4-dimethylisoxazol-5-yl)acetamide] | A (ke is more than or equal to 0.1) |
| CNC(=O)COc1cc(F)c(Cc2ccc(O)c(C(C)C)c2)c(Cl)c1F [Compound 42] | A (ke is more than or equal to 0.1) |
| CNC(=O)COc1cc(Cl)c(Cc2ccc(O)c(C(C)C)c2F)c(Cl)c1F [Compound 39] | B (ke is less than 0.1 and more than 0) |
| CON(C)C(=O)COc1cc(Cl)c(Cc2ccc(O)c(C(C)C)c2F)c(Cl)c1 [Compound 44] | A (ke is more than or equal to 0.1) |
| CC(C)c1c(O)ccc(Cc2c(Cl)cc(OCC(=O)N(C)C)cc2Cl)c1F [Compound 32] | A (ke is more than or equal to 0.1) |
| C=CCNC(=O)COc1cc(Cl)c(Cc2ccc(O)c(C(C)C)c2)c(Cl)c1 [Compound 4] | A (ke is more than or equal to 0.1) |
| CC(C)c1cc(Cc2c(Cl)cc(OCC(=O)NCC#N)cc2Cl)ccc1O [Compound 29] | A (ke is more than or equal to 0.1) |
| C=CCN(C)C(=O)COc1cc(Cl)c(Cc2ccc(O)c(C(C)C)c2)c(Cl)c1 [Compound 128, N-allyl-2-(3,5-dichloro-4-(4-hydroxy-3-isopropylbenzyl)phenoxy)-N-methylacetamide] | B (ke is less than 0.1 and more than 0) |
| CC(C)c1cc(Cc2c(Cl)cc(OCC(=O)NCCCF)cc2Cl)ccc1O [Compound 112, 2-(3,5-dichloro-4-(4-hydroxy-3-isopropylbenzyl)phenoxy)-N-(3-fluoropropyl)acetamide] | A (ke is more than or equal to 0.1) |
| CCNC(=O)COc1cc(Cl)c(Cc2ccc(O)c(C(C)C)c2)c(Cl)c1 [Compound 2] | A (ke is more than or equal to 0.1) |
| CC(C)c1c(O)ccc(Cc2c(Cl)cc(OCC(=O)NCCF)cc2Cl)c1F [Compound 36] | A (ke is more than or equal to 0.1) |
| CC(C)c1cc(Cc2c(Cl)cc(OCC(=O)NC[C@H](C)O)cc2Cl)ccc1O [Compound 8] | B (ke is less than 0.1 and more than 0) |
| CC(C)c1cc(Cc2c(Cl)cc(OCC(=O)NC3CCC3)cc2Cl)ccc1O [Compound 127, N-cyclobutyl-2-(3,5-dichloro-4-(4-hydroxy-3-isopropylbenzyl)phenoxy)acetamide] | B (ke is less than 0.1 and more than 0) |
| CNN(C)C(=O)COc1cc(Cl)c(Cc2ccc(O)c(C(C)C)c2)c(Cl)c1 [Compound 124, 2-(3,5-dichloro-4-(4-hydroxy-3-isopropylbenzyl)phenoxy)-N,N′-dimethylacetohydrazide] | B (ke is less than 0.1 and more than 0) |
| CC(C)c1cc(Cc2c(Cl)cc(OCC(=O)NCCO)cc2Cl)ccc1O [Compound 6] | A (ke is more than or equal to 0.1) |
| CC(C)c1cc(Cc2c(Cl)cc(OCC(=O)N(C)CC(F)(F)F)cc2Cl)ccc1O [Compound 131, 2-(3,5-dichloro-4-(4-hydroxy-3-isopropylbenzyl)phenoxy)-N-methyl-N-(2,2,2-trifluoroethyl)acetamide] | B (ke is less than 0.1 and more than 0) |
| CC(C)c1cc(Cc2c(Cl)cc(OCC(=O)N(C)N(C)C)cc2Cl)ccc1O [Compound 108, 2-(3,5-dichloro-4-(4-hydroxy-3-isopropylbenzyl)phenoxy)-N,N′,N′-trimethylacetohydrazide] | B (ke is less than 0.1 and more than 0) |
| CCCNC(=O)COc1cc(Cl)c(Cc2ccc(O)c(C(C)C)c2)c(Cl)c1 [Compound 3] | A (ke is more than or equal to 0.1) |
| CC(C)c1cc(Cc2c(Cl)cc(OCC(=O)NCC(F)F)cc2Cl)ccc1O [Compound 15] | A (ke is more than or equal to 0.1) |
